In brackets after ≈: the same amount, converted by molar mass. Read-outs that look alike come from different tables or passages of the source.
What was measured:
[1] = test system: Staphylococcus aureus 209P; assay: MIC, standard serial dilution method; format: cell-based; settings: Mueller-Hinton agar, 37° C
[2] = test system: Staphylococcus aureus Ap01; assay: MIC, standard serial dilution method; format: cell-based; settings: resistance mechanism ANT(4'), Mueller-Hinton agar, 37° C
[3] = test system: Bacillus subtilis PCI219; assay: MIC, standard serial dilution method; format: cell-based; settings: Mueller-Hinton agar, 37° C
[4] = test system: Corynebacterium bovis 1810; assay: MIC, standard serial dilution method; format: cell-based; settings: Mueller-Hinton agar, 37° C
[5] = test system: Escherichia coli K-12; assay: MIC, standard serial dilution method; format: cell-based; settings: K12; Escherichia coli K-12; Mueller-Hinton agar, 37° C; read-out: MIC
[6] = test system: Escherichia coli K-12 R5; assay: microbe, parasite or virus in culture; format: cell-based; settings: K12R5
[7] = test system: Escherichia coli K-12 ML 1629; assay: microbe, parasite or virus in culture; format: cell-based; settings: K12ML1629
[8] = test system: Escherichia coli K-12 LA 290 R55; assay: microbe, parasite or virus in culture; format: cell-based; settings: K12LA290R55; Escherichia coli K-12 LA 290 R55; resistance mechanism ANT(2"); Mueller-Hinton agar, 37° C
[9] = test system: Escherichia coli JR225; assay: microbe, parasite or virus in culture; format: cell-based; settings: resistance mechanism AAC(3), Mueller-Hinton agar, 37° C
[10] = test system: Escherichia coli JR66/W677; assay: microbe, parasite or virus in culture; format: cell-based; settings: resistance mechanism APH(3')-II, ANT(2"), Mueller-Hinton agar, 37° C
[11] = test system: Mycobacterium 607; assay: MIC, standard serial dilution method; format: cell-based; settings: Mueller-Hinton agar, 37° C
[12] = test system: Klebsiella pneumoniae 22#3038; assay: MIC, standard serial dilution method; format: cell-based; settings: resistance mechanism APH(3')-II, ANT(2"), Mueller-Hinton agar, 37° C
[13] = test system: Proteus rettgeri GN 311; assay: MIC, standard serial dilution method; format: cell-based; settings: Providencia rettgeri, GN311
[14] = test system: Serratia marcescens; assay: MIC, standard serial dilution method; format: cell-based; settings: Mueller-Hinton agar, 37° C
[15] = test system: Providencia sp. Pv 16; assay: MIC, standard serial dilution method; format: cell-based; settings: SP.PV16, resistance mechanism AAC(2'), Mueller-Hinton agar, 37° C
[16] = test system: Pseudomonas aeruginosa A3; assay: MIC, standard serial dilution method; format: cell-based; settings: Mueller-Hinton agar, 37° C
[17] = test system: Pseudomonas aeruginosa GN 315; assay: MIC, standard serial dilution method; format: cell-based; settings: GN315; Pseudomonas aeruginosa GN 315; resistance mechanism AAC(6'); Mueller-Hinton agar, 37° C; read-out: MIC
[18] = in vivo; settings: mouse, iv, pH 7
Description: Further, in order to estimate acute toxicity of the compound of the general formula (I) according to this invention, some examples of the compounds of this invention were independently dissolved in water to prepare aqueous solutions (as adjusted to pH 7 by addition of hydrochloric acid). […] The tested compounds of this invention are expressed by the same abbreviations as in Table 1. […] The comparative compounds as tested are also expressed by the same abbreviations as in Table 1.

[19] = Escherichia coli K-12 R5, resistance mechanism AAC(6'), Mueller-Hinton agar, 37° C
[20] = Escherichia coli K-12 ML 1629, resistance mechanism APH(3')-I, Mueller-Hinton agar, 37° C, read-out: MIC
[21] = Proteus rettgeri GN 311, Mueller-Hinton agar, 37° C, read-out: MIC

Compound `CCN[C@@H]1C[C@H](N)[C@@H](O[C@H]2OC(CN)=CC[C@H]2N)[C@H](O)[C@H]1O[C@H]1OC[C@](C)(O)[C@H](NC)[C@H]1O` [Netilmicin, netilmicin, reference compound] has an MIC [1] of less than 0.2 µg/mL, an MIC [2] of 0.78 µg/mL (≈ 1.64 µM) and an MIC [3] of less than 0.2 µg/mL. The MIC [4] was 1.56 µg/mL (≈ 3.28 µM), the MIC [5] was less than 0.2 µg/mL and the MIC [6, 19] was 50 µg/mL (≈ 105 µM). It also gave an MIC [7, 20] of 0.39 µg/mL (≈ 0.82 µM), an MIC [8] of 0.39 µg/mL (≈ 0.82 µM) and an MIC [9] of 12.5 µg/mL (≈ 26.3 µM). The MIC [10] was 0.39 µg/mL (≈ 0.82 µM), the MIC [11] was 1.56 µg/mL (≈ 3.28 µM) and the MIC [12] was 0.39 µg/mL (≈ 0.82 µM). For the same compound, the MIC [13, 21] was 0.39 µg/mL (≈ 0.82 µM), the MIC [14] was 6.25 µg/mL (≈ 13.1 µM) and the MIC [15] was 6.25 µg/mL (≈ 13.1 µM). It also gave an MIC [16] of 0.39 µg/mL (≈ 0.82 µM), an MIC [17] greater than 100 µg/mL and an LD50 [18] of 30 mg/kg.
In the case of `CN[C@@H]1[C@@H](O)[C@@H](O[C@@H]2[C@@H](O)[C@H](O[C@H]3O[C@H]([C@@H](C)NC)CC[C@H]3N)[C@@H](N)C[C@H]2N)OC[C@]1(C)O` [Genta-C1, gentamicin C1, reference compound], the MIC [1] is reported as less than 0.2 µg/mL, the MIC [2] is reported as 0.78 µg/mL (≈ 1.63 µM) and the MIC [3] is reported as less than 0.2 µg/mL. For the same compound, the MIC [4] was 0.39 µg/mL (≈ 0.817 µM), the MIC [5] was 0.2 µg/mL (≈ 0.419 µM) and the MIC ([6]; Escherichia coli) was 0.78 µg/mL (≈ 1.63 µM). It also gave an MIC [7, 20] of 0.39 µg/mL (≈ 0.817 µM), an MIC [8] of 12.5 µg/mL (≈ 26.2 µM) and an MIC [9] of 25 µg/mL (≈ 52.3 µM). For the same compound, the MIC [10] was 12.5 µg/mL (≈ 26.2 µM), the MIC [11] was 3.12 µg/mL (≈ 6.53 µM) and the MIC [12] was 12.5 µg/mL (≈ 26.2 µM). It also gave an MIC [13] of 0.78 µg/mL (≈ 1.63 µM), an MIC [14] of 0.78 µg/mL (≈ 1.63 µM) and an MIC [15] of 25 µg/mL (≈ 52.3 µM). It also gave an MIC [16] of 0.78 µg/mL (≈ 1.63 µM), an MIC [17] of 6.25 µg/mL (≈ 13.1 µM) and an LD50 [18] of roughly 70 mg/kg.
Compound `NC[C@@H]1CC[C@@H](N)[C@@H](O[C@@H]2[C@@H](N)C[C@@H](N)[C@H](O[C@H]3O[C@H](CO)[C@@H](O)[C@H](N)[C@H]3O)C2(F)F)O1` [Compound 5FF-DKB, 5,3',4'-trideoxy-5,5-difluorokanamycin B] has an MIC [1] of 0.78 µg/mL (≈ 1.65 µM), an MIC [2] of 3.12 µg/mL (≈ 6.62 µM) and an MIC [3] of 0.39 µg/mL (≈ 0.827 µM). The MIC [4] was 1.56 µg/mL (≈ 3.31 µM), the MIC [5] was 0.39 µg/mL (≈ 0.827 µM) and the MIC [6, 19] was 100 µg/mL (≈ 212 µM). The MIC ([7]; Escherichia coli) was 0.78 µg/mL (≈ 1.65 µM), the MIC [8] was 1.56 µg/mL (≈ 3.31 µM) and the MIC [9] was 3.12 µg/mL (≈ 6.62 µM). The MIC [10] was 1.56 µg/mL (≈ 3.31 µM), the MIC [11] was 1.56 µg/mL (≈ 3.31 µM) and the MIC [12] was 1.56 µg/mL (≈ 3.31 µM). For the same compound, the MIC [13, 21] was 0.39 µg/mL (≈ 0.827 µM), the MIC [14] was 12.5 µg/mL (≈ 26.5 µM) and the MIC [15] was 12.5 µg/mL (≈ 26.5 µM). It also gave an MIC [16] of 0.39 µg/mL (≈ 0.827 µM), an MIC [17] greater than 100 µg/mL and an LD50 [18] of 250 mg/kg.
Work on `CN[C@@H]1[C@@H](O)[C@@H](O[C@H]2[C@H](N)C[C@H](N)[C@@H](O[C@H]3O[C@H](CN)CC[C@H]3N)C2(F)F)OC[C@]1(C)O` [5FF-Genta-C1a, 5-deoxy-5,5-difluorogentamicin C1a] yielded an MIC [1] of 0.78 µg/mL (≈ 1.66 µM), an MIC [2] of 3.12 µg/mL (≈ 6.64 µM) and an MIC [3] of 0.39 µg/mL (≈ 0.831 µM). The MIC [4] was 0.78 µg/mL (≈ 1.66 µM), the MIC [5] was less than 0.2 µg/mL and the MIC [6, 19] was 12.5 µg/mL (≈ 26.6 µM). For the same compound, the MIC [7, 20] was 0.39 µg/mL (≈ 0.831 µM), the MIC [8] was 3.12 µg/mL (≈ 6.64 µM) and the MIC [9] was 3.12 µg/mL (≈ 6.64 µM). It also gave an MIC [10] of 1.56 µg/mL (≈ 3.32 µM), an MIC [11] of 0.78 µg/mL (≈ 1.66 µM) and an MIC [12] of 1.56 µg/mL (≈ 3.32 µM). It also gave an MIC [13, 21] of 0.39 µg/mL (≈ 0.831 µM), an MIC [14] of 6.25 µg/mL (≈ 13.3 µM) and an MIC [15] of 12.5 µg/mL (≈ 26.6 µM). For the same compound, the MIC [16] was 0.78 µg/mL (≈ 1.66 µM), the MIC [17] was 100 µg/mL (≈ 213 µM) and the LD50 [18] was roughly 240 mg/kg.
With `NCC[C@H](O)C(=O)N[C@@H]1C[C@H](N)[C@@H](O[C@H]2O[C@H](CN)[C@@H](O)C[C@H]2N)C(F)(F)[C@H]1O[C@H]1O[C@H](CO)[C@@H](O)[C@H](N)[C@H]1O` [Compound 5FF-TOB-AHB, 1-N-[(S)-4-amino-2-hydroxybutyryl]-5-deoxy-5,5-difluorotobramycin] the MIC [1] was 0.39 µg/mL (≈ 0.663 µM), the MIC [2] was 3.12 µg/mL (≈ 5.3 µM) and the MIC [3] was less than 0.2 µg/mL. The MIC [4] was less than 0.2 µg/mL, the MIC [5] was less than 0.2 µg/mL and the MIC [6, 19] was 3.12 µg/mL (≈ 5.3 µM). The MIC [7, 20] was 0.39 µg/mL (≈ 0.663 µM), the MIC [8] was less than 0.2 µg/mL and the MIC [9] was less than 0.2 µg/mL. For the same compound, the MIC [10] was 0.39 µg/mL (≈ 0.663 µM), the MIC [11] was 0.39 µg/mL (≈ 0.663 µM) and the MIC [12] was 0.78 µg/mL (≈ 1.33 µM). It also gave an MIC [13, 21] of 0.39 µg/mL (≈ 0.663 µM), an MIC [14] of 1.56 µg/mL (≈ 2.65 µM) and an MIC [15] of 0.78 µg/mL (≈ 1.33 µM). The MIC [16] was 0.78 µg/mL (≈ 1.33 µM), the MIC [17] was 6.25 µg/mL (≈ 10.6 µM) and the LD50 [18] was greater than 300 mg/kg.
